The values that follow come from ChEMBL document CHEMBL1201862, “PubChem BioAssay data set” (2004).

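Exposure lasted 48 hours, with cells grown in 96-well plates and compounds tested at five concentrations. The concentration for 50% growth inhibition is given as GI50.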 Calls of active or inactive are those of the source. Cut-off read from the data, not from the text of the source: active = GI50 up to about 1.1 µM and inactive = higher.

Test systems include ACHN; HCT-15; HOP-92; Hs-578T; IGROV-1; K562; KM12; M14; OVCAR-3; OVCAR-5; PC-3; RXF 393; SK-MEL-2; SK-MEL-5; SN12C; SNB-19; SNB-75; T47D; UACC-62; MCF7.
Test in all cases: inhibition of tumour cell growth, NCI panel, 48 h

`NCCN1C(=O)CN=C(c2ccc(Cl)cc2)c2cc(Cl)ccc21`: the GI50 in the experiment on ACHN is 18.7 µM (inactive); in the experiment on HCT-15, 16.7 µM; with HOP-92 it was 9.84 µM (inactive); in the experiment with Hs-578T it was 16.1 µM (inactive); with IGROV-1, 13.3 µM (inactive); in the experiment on K562, 16.3 µM (inactive). Also, the GI50 in the experiment on KM12 was 17.2 µM (inactive); in the experiment with M14, 16.1 µM (inactive); in the experiment with OVCAR-3, 15.5 µM (inactive); with OVCAR-5, 15.7 µM (inactive); in the experiment with PC-3, 14.8 µM (inactive); in the experiment on RXF 393, 11.5 µM (inactive). For the same compound, the GI50 in the experiment on SK-MEL-2 was 16.3 µM (inactive); with SK-MEL-5, 16.9 µM (inactive); in the experiment on SN12C, 22.5 µM (inactive); in the experiment on SNB-19, 20.1 µM (inactive); in the experiment with SNB-75, 14.9 µM (inactive); with T47D, 21.8 µM (inactive). The GI50 in the experiment with UACC-62 is 17.9 µM (inactive).

For `CC1CN=C(N(C)C(=O)Nc2ccc(Cl)c(Cl)c2)S1` (stereo not drawn), the GI50 in the experiment on ACHN was 11 µM (inactive); in the experiment on HCT-15, 21.3 µM; with HOP-92 it was 4.76 µM (inactive); in the experiment with Hs-578T it was 22.8 µM (inactive); in the experiment on IGROV-1, 27.2 µM (inactive); in the experiment with K562, 23.4 µM (inactive). The GI50 in the experiment on KM12 is 32.4 µM (inactive); in the experiment on M14, 0.127 µM (active); with MCF7, 19.3 µM (inactive); in the experiment on OVCAR-3 it was 20.5 µM (inactive); in the experiment with OVCAR-5, 15.2 µM (inactive); in the experiment on PC-3, 27.4 µM (inactive). Besides, the GI50 in the experiment with SK-MEL-2 was 17.4 µM (inactive); in the experiment with SK-MEL-5, 15.7 µM (inactive); in the experiment on SN12C, 26.5 µM (inactive); in the experiment with SNB-19, 80 µM (inactive); in the experiment with SNB-75 it was 19.1 µM (inactive); in the experiment on T47D, 19.3 µM (inactive).

Consider `Nc1nc(Cl)cc(NCC2(CO)CC(CCCCc3ccccc3)C2)n1` (stereo not drawn), for which the GI50 is > 100 µM (inactive) in the experiment on ACHN; 34.8 µM with HCT-15; 96.4 µM (inactive) in the experiment on HOP-92; 70.6 µM (inactive) with Hs-578T; > 100 µM (inactive) with IGROV-1; 2.23 µM (inactive) with K562. Besides, the GI50 is 65 µM (inactive) in the experiment with KM12; 67.6 µM (inactive) in the experiment on M14; 7.55 µM (inactive) in the experiment on MCF7; > 100 µM (inactive) in the experiment with OVCAR-3; > 100 µM (inactive) in the experiment on OVCAR-5; 46.1 µM (inactive) in the experiment with PC-3. In addition, the GI50 with RXF 393 is 34.6 µM (inactive); with SK-MEL-2, > 100 µM (inactive); with SK-MEL-5, 3.86 µM (inactive); in the experiment on SN12C, > 100 µM (inactive); with SNB-19, > 100 µM (inactive); with SNB-75, 81.3 µM (inactive). In addition, the GI50 in the experiment with UACC-62 is > 100 µM (inactive).

Consider `CCOC(=O)C(=O)/C(=C/NC(=S)Nc1ccc(Cl)c(Cl)c1)C(=O)OCC`, for which the GI50 was > 100 µM (inactive) in the experiment on ACHN; greater than 100 µM in the experiment on HCT-15; 55.8 µM (inactive) in the experiment with HOP-92; 44.5 µM (inactive) with Hs-578T; 85.9 µM (inactive) in the experiment on IGROV-1; 86.5 µM (inactive) in the experiment with KM12. Also, the GI50 was 75.3 µM (inactive) in the experiment with M14; 62.2 µM (inactive) in the experiment with MCF7; 72.9 µM (inactive) in the experiment with OVCAR-3; > 100 µM (inactive) with OVCAR-5; 47 µM (inactive) in the experiment with PC-3; 37.8 µM (inactive) with RXF 393. Further, the GI50 in the experiment with SK-MEL-2 is 69.2 µM (inactive); with SK-MEL-5, 27.6 µM (inactive); in the experiment on SN12C it was 88.3 µM (inactive); in the experiment with SNB-19, > 100 µM (inactive); in the experiment on SNB-75, 31.2 µM (inactive); in the experiment with UACC-62, 57.8 µM (inactive).

Take `COc1ccc(NCc2cccc3c(=O)c4ccc(Cl)cc4oc23)cc1`: the GI50 was > 100 µM (inactive) with ACHN; greater than 100 µM with HCT-15; 2.5 µM (inactive) in the experiment with HOP-92; > 100 µM (inactive) in the experiment with IGROV-1; > 100 µM (inactive) in the experiment with K562; > 100 µM (inactive) in the experiment on KM12. For the same compound, the GI50 with M14, in the experiment on MCF7, in the experiment with OVCAR-3, in the experiment on OVCAR-5, in the experiment on PC-3 and in the experiment on SK-MEL-2 was > 100 µM (inactive) throughout. For the same compound, the GI50 with SK-MEL-5, in the experiment on SN12C, with SNB-75, with T47D and with UACC-62 was > 100 µM (inactive) in each case.

`C[N+](C)(C)CC1CCCC1=O` (stereo not drawn): the GI50 with ACHN is 1.09 µM (active); in the experiment with HCT-15, 2.18 µM; in the experiment with HOP-92, 1.07 µM (active); in the experiment with Hs-578T it was 3.43 µM (inactive); in the experiment with IGROV-1, 16 µM (inactive); in the experiment on K562, 0.377 µM (active). Also, the GI50 was 6.59 µM (inactive) in the experiment on KM12; 0.929 µM (active) with M14; 2.36 µM (inactive) with OVCAR-3; 8.22 µM (inactive) in the experiment with OVCAR-5; 1.41 µM (inactive) with PC-3; 2.27 µM (inactive) in the experiment with RXF 393. Moreover, the GI50 was 5.61 µM (inactive) with SK-MEL-2; 5.68 µM (inactive) with SK-MEL-5; 2.64 µM (inactive) with SN12C; 20.2 µM (inactive) in the experiment with SNB-19; 3.1 µM (inactive) with SNB-75; 0.192 µM (active) in the experiment with T47D. Besides, the GI50 in the experiment on UACC-62 is 1.6 µM (inactive).

With `O=C(CSCC(=O)N/N=C\c1ccc(F)cc1F)N/N=C\c1ccc(F)cc1F`, the GI50 with ACHN is > 100 µM (inactive); in the experiment with HCT-15 it was greater than 100 µM; in the experiment on HOP-92, > 100 µM (inactive); in the experiment with Hs-578T it was > 100 µM (inactive); in the experiment with IGROV-1, > 100 µM (inactive); in the experiment with KM12 it was > 100 µM (inactive). Also, the GI50 in the experiment with M14, with MCF7, in the experiment with OVCAR-3, with RXF 393, in the experiment with SK-MEL-2 and with SK-MEL-5 was > 100 µM (inactive) each time. Besides, the GI50 with SN12C, in the experiment on SNB-19, in the experiment on SNB-75, with T47D and with UACC-62 was > 100 µM (inactive) in each case.

As to `COC(=O)c1cnn2c1ccc1ccccc12`, the GI50 is > 100 µM (inactive) with ACHN; greater than 100 µM in the experiment on HCT-15; > 100 µM (inactive) with HOP-92; > 100 µM (inactive) in the experiment with Hs-578T; 78.9 µM (inactive) in the experiment with IGROV-1; > 100 µM (inactive) in the experiment on K562. The GI50 in the experiment with KM12 is 61.5 µM (inactive); in the experiment on M14, > 100 µM (inactive); in the experiment with OVCAR-3, > 100 µM (inactive); in the experiment on OVCAR-5 it was > 100 µM (inactive); with PC-3 it was > 100 µM (inactive); in the experiment on RXF 393, > 100 µM (inactive). The GI50 in the experiment on SK-MEL-2, in the experiment with SK-MEL-5, in the experiment on SN12C, with SNB-19, with SNB-75 and in the experiment on T47D was > 100 µM (inactive) throughout. Further, the GI50 in the experiment with UACC-62 was > 100 µM (inactive).

With `O=S(=O)(/N=c1/[nH]c2ccccc2n1S(=O)(=O)c1ccccc1)c1ccccc1`, the GI50 with ACHN was 26.5 µM (inactive); in the experiment on HCT-15, 36.3 µM; with HOP-92, 38.5 µM (inactive); in the experiment with Hs-578T, 88.1 µM (inactive); with IGROV-1, 48 µM (inactive); with K562, 32.7 µM (inactive). Further, the GI50 in the experiment with KM12 is 33.1 µM (inactive); with M14 it was 25.2 µM (inactive); with OVCAR-3, 27.9 µM (inactive); in the experiment with OVCAR-5, 64.9 µM (inactive); in the experiment with PC-3 it was 36.8 µM (inactive); with RXF 393 it was 56.8 µM (inactive). For the same compound, the GI50 is 35.4 µM (inactive) in the experiment with SK-MEL-2; 47.8 µM (inactive) in the experiment on SK-MEL-5; 65.5 µM (inactive) in the experiment with SN12C; 32.7 µM (inactive) in the experiment with SNB-19; 88.3 µM (inactive) in the experiment with SNB-75; 53.1 µM (inactive) in the experiment on T47D. Besides, the GI50 with UACC-62 is 26.7 µM (inactive).

Consider `O=C(Nc1ccc(F)cc1)c1cc2ccc(O)cc2o/c1=N\c1cccc(F)c1`, for which the GI50 is 32.8 µM (inactive) in the experiment with ACHN; 27.5 µM in the experiment on HCT-15; 18.9 µM (inactive) in the experiment with IGROV-1; 22 µM (inactive) with K562; 29.9 µM (inactive) in the experiment on KM12; 32.8 µM (inactive) in the experiment with MCF7. Moreover, the GI50 is 38.3 µM (inactive) in the experiment with OVCAR-3; > 100 µM (inactive) in the experiment on OVCAR-5; 33 µM (inactive) in the experiment with PC-3; 42.2 µM (inactive) in the experiment on SK-MEL-2; 16.1 µM (inactive) in the experiment with SK-MEL-5; 38.9 µM (inactive) in the experiment on SN12C. Besides, the GI50 with T47D is 31.5 µM (inactive); in the experiment with UACC-62, 42.8 µM (inactive).

For the compound `C[C@]12CC[C@@H]3c4ccc(OS(N)(=O)=O)cc4CC[C@H]3[C@@H]1CCC2=O` [EMATE], the GI50 was 84.9 µM (inactive) in the experiment on ACHN; 38 µM in the experiment with HCT-15; > 100 µM (inactive) in the experiment on HOP-92; 10.5 µM (inactive) with Hs-578T; 28.7 µM (inactive) in the experiment on IGROV-1; 24.7 µM (inactive) with K562. For the same compound, the GI50 in the experiment on KM12 was 30.5 µM (inactive); in the experiment on M14 it was 38.9 µM (inactive); in the experiment on MCF7, 36.5 µM (inactive); with OVCAR-3, 64 µM (inactive); in the experiment with OVCAR-5, > 100 µM (inactive); in the experiment with RXF 393 it was 63.4 µM (inactive). For the same compound, the GI50 is 37.5 µM (inactive) with SK-MEL-2; 13.5 µM (inactive) in the experiment on SK-MEL-5; 81.3 µM (inactive) with SN12C; 73.3 µM (inactive) with SNB-19; 42.4 µM (inactive) with SNB-75; 29 µM (inactive) in the experiment with T47D. Besides, in the experiment on UACC-62, the GI50 was 37.6 µM (inactive).
